{"source": "patent US9260759B2", "about": "“Pyrazoloanthrone and derivatives thereof for the treatment of cancers expressing MISRII” (The General Hospital Corporation, priority 2007, dated 2016)", "key": {"[1]": {"target": "T1, rat MISRII (Rattus norvegicus, UniProt Q62893)", "T1 construct": "expressed in transfected cells; host or cells: COS7", "T1 sequence (Q62893 18-557)": "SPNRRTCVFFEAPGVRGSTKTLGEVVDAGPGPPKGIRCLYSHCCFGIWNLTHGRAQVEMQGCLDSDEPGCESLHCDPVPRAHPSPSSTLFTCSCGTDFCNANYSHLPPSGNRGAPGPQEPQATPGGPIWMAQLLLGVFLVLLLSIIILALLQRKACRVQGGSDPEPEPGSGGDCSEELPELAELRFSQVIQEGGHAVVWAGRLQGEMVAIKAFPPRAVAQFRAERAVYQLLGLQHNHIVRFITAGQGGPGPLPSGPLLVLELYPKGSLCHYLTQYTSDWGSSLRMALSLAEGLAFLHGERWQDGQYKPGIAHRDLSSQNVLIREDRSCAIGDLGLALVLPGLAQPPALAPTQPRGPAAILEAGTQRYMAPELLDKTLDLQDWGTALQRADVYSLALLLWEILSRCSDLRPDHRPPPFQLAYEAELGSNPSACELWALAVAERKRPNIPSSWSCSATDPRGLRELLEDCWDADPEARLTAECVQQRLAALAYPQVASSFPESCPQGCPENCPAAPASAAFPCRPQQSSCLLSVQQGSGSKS", "test": "BRE-luciferase reporter assay in COS7 cells transfected with MISRII", "format": "cell-based", "source_text": "COS7 cells were transiently transfected with MISRH, BRE-Luciferase and phRL-CMV. […] Control cells were transfected with a control plasmid (EGFP-N1 plasmid) instead of the receptor plasmid to keep the total DNA transfected constant. The results shown are the fold-induction over vehicle treated cells and normalized to phRL-CMV expression to correct for variations in cell number and transfection efficiency. […] The results represent the mean values from three independent experiments performed in triplicates (Error bars represent SEM, *p<0.05, **p<0.001).\nTo identify molecules that interact with the MISRII, we developed a reporter assay where binding to MISRII activates a firefly luciferase reporter driven by the BMP-responsive element (BRE) promoter kindly provided by Dr. Peter ten Dijke (The Netherlands Cancer Institute, The Netherlands) The BMP promoter region on mouse M. mus is located on chromosome 2 (Chr2) and corresponds to RefSeq No: NT—039207.6 93504644-93506272 (SEQ ID NO:1). The BRE-luciferase reporter (Korchynskyi and ten Dijke, 2002, Logeart-Avramoglou, 2006) has multiple optimized BMP response elements (3 SBE, 7 GC, and 4 CAGC) driving the expression of the firefly luciferase. This reporter construct together with a control Renilla luciferase reporter phRL-CMV (Promega, Madison Wis.) and a rat MISRII cDNA expression construct (Teixeira, 1996) were transiently transfected into COST cells and plated in 384 well plates. Primary screens were performed at the Harvard Institute of Chemistry and Cell Biology screening facility. Compounds from chosen libraries were added at a volume of 100 nl at 5 mg/ml concentration in DMSO into 30 μl cell media and cultured for 24 h at 37° C., after which the luciferase activity was measured with reagents from Promega according to the manufacturer's instructions. A hit was identified as causing a fold induction over the plate median and each compound was tested in duplicate in separate plates. MIS was used to control for intra- and inter-assay variability.\nCOS7 cells were plated at a density of 5000 cells/well in 96-well plates for secondary screens. The day after plating cells were transfected with rat MISRII receptor or EGFP-N1 (Clontech, Mountain View Calif.) together with BRE firefly luciferase reporter construct and phRL-CMV using TransIT-LT1 transfection reagent (Mirus Bio Corporation, Madison Wis.). […] Results were obtained using the Dual Luciferase reporter assay according to the manufacturer's instructions (Promega). Plates were read in a Wallac Victor2 luminometer (PerkinElmer, Wellesley Mass.)."}, "[2]": {"test_system": "c-jun", "test": "Western blot of anisomycin-induced c-jun phosphorylation in MOVCAR cells", "format": "cell-based, mouse", "protocol": "(§1) The results are representative of several experiments.\n(§2) Cells were washed in PBS and lysates were prepared in 1× Passive lysis buffer (PLB) provided with the Dual luciferase reporter assay kit (Promega). The lysates were cleared by centrifugation and the protein concentration was determined by Bradford assay (Bio-Rad, Hercules Calif.). […] of protein were loaded onto a NuPAGE 4-12% Bis-Tris gradient gel with MOPS-buffer (Invitrogen, Carlsbad Calif.) for polyacrylamide gel electrophoresis. Following transfer to a nitrocellulose by electroblotting, the membrane was blocked in 5% milk Tris-buffered saline/Tween20 (TBS-T) for 1 h at room temperature and incubated with primary antibody (pJNK, c-jun and phosph c-jun antibodies were purchased from Cell Signalling, Danvers, Mass.; amd JNK antibody was published from Santa Cruz Biotechnology, Calif.) overnight at 4° C. in 5% BSA followed by incubation with secondary horseradish peroxidase conjugated anti-rabbit antibody (Jackson ImmunoResearch, Westgrove Pa.) for 1 h. Immunoreactive proteins were detected by enhanced chemiluminescence (Pierce, Rockford Ill.). Anisomycin was purchased from Calbiochem.\n(§3) The known Jun kinase activator anisomycin was used as a positive control (Hazzalin, 1998). […] Further, MIS had no effect on phosphorylation of JNK by anisomycin."}, "[3]": {"test_system": "MOVCAR7 cells", "test": "MTT proliferation assay, MOVCAR7 cells", "format": "cell-based", "conditions": "Mus musculus, 168 h", "protocol": "Cells were plated in 96-well plates and treated the day after. Seven days after plating the cell survival was measured using 3-(4,5-dimethylthiazol-2-yl)-2,5-diphenyltetrazolium bromide substrate and measuring the absorbance at 550 nm.\n(Connolly, 2003). The 4306 cells were provided by Dr. Daniela Dinulescu, Brigham and Women's (Boston) (30). Cells were plated at a density of 1000 cells/well in 96-well plates and treated 24 h later. The cell proliferation was measured after 7 days by registering the absorbance at 550 nm. Paclitaxel was manufactured by Ivax Pharmaceuticals and obtained from the MGH pharmacy.\nThe cells were treated for 7 days and the proliferation was measured by spectrophotometry. To exclude cytotoxic effects on the cells unrelated to MIS signal transduction, we used untransfected COS7 cells as a negative control. […] Paclitaxel is used in treatment of a wide range of tumors, but the side effects can be debilitating (Pieretti-Vanmarcke, 2006a, Pieretti-Vanmarcke, 2006b)."}, "[4]": {"test_system": "JNK", "test": "Immunoblot of JNK phosphorylation in MOVCAR7 cells", "format": "cell-based, mouse", "protocol": "as §1, §2, §3"}, "[5]": {"target": "T2, MISRIIK228R (Rattus norvegicus, UniProt Q62893, K228R)", "T2 construct": "expressed in transfected cells; host or cells: COS7", "T2 sequence (Q62893 18-557 K228R)": "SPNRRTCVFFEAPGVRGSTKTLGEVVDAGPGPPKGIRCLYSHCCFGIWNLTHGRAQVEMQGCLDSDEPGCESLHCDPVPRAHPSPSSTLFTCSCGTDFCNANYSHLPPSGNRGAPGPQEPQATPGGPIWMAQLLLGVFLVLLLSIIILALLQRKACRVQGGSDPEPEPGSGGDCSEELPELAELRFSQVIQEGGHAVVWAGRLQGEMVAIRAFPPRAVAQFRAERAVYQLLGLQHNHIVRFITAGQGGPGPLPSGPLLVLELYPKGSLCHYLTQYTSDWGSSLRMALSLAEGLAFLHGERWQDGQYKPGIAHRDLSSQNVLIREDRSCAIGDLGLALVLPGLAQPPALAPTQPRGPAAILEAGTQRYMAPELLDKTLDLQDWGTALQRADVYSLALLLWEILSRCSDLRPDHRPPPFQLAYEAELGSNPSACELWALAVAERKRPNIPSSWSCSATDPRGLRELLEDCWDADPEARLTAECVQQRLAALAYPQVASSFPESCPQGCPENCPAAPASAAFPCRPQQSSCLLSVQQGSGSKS", "test": "BRE-luciferase reporter assay in COS7 cells with kinase-deficient receptor MISRIIK228R", "format": "cell-based", "conditions": "K228R receptor overexpressed, COS7, 24 hrs, agent alone", "source_text": "Results shown represent the mean values from four independent experiments performed in triplicates (Error bars represent standard error of the mean, *, P<0.05)."}, "[6]": {"target": "T3, endogenous MISRII (Mus musculus, UniProt Q8K592)", "T3 construct": "a mouse ovarian cancer cell line, MOVCAR7, that expresses endogenous MISRII; endogenous in cells; host or cells: MOVCAR7 (mouse ovarian cancer cell line)", "T3 sequence (Q8K592 16-568)": "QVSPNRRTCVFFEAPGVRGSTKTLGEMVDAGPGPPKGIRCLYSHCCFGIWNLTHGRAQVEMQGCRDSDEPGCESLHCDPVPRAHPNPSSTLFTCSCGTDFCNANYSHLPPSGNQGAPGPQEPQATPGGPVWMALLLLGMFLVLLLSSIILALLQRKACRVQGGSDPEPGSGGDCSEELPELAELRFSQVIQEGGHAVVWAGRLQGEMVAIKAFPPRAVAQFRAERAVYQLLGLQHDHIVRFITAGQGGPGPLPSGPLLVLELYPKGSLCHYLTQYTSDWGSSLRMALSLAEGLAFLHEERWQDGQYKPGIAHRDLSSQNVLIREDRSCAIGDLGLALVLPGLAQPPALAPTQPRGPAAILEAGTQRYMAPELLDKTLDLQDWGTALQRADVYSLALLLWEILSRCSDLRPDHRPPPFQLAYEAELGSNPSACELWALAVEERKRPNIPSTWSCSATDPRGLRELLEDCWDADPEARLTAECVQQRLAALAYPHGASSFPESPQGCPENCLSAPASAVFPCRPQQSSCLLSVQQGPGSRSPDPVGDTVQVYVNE", "test": "BRE-luciferase reporter assay in MOVCAR7 cells expressing endogenous MISRII", "format": "cell-based", "conditions": "5 μg/ml MIS, MOVCAR7, 24 h"}}, "note": "Like-named read-outs stand apart in the source and are kept apart here."}
{"molecule": "CCOc1nc(NC(=O)Cc2cc(OC)ccc2OC)cc(N)c1C#N", "note": "[JNK inhibitor VIII, reference compound]", "values": [{"measurement": "effect on BRE-luciferase when combined with MIS", "setting": "[1]; JNK inhibitor VIII 5, 25 or 50 μM with MIS", "value": "no further effect"}, {"measurement": "activation of BRE-luciferase", "setting": "[1]; JNK inhibitor VIII at 5, 25 or 50 μM alone, COS7", "value": "did not result in any activation"}, {"measurement": "inhibiting phosphorylation of c-jun, compared with SP600125", "setting": "[2]", "value": "much more effective"}, {"measurement": "c-jun phosphorylation induced by 500 nM anisomycin", "setting": "[2]; pre-treatment 25 uM", "value": "inhibited"}]}
{"molecule": "CC(=O)O[C@H]1C(=O)[C@@]2(C)[C@H]([C@H](OC(=O)c3ccccc3)[C@]3(O)C[C@H](OC(=O)[C@H](O)[C@@H](NC(=O)c4ccccc4)c4ccccc4)C(C)=C1C3(C)C)[C@]1(OC(C)=O)CO[C@@H]1C[C@@H]2O", "note": "[paclitaxel]", "values": [{"measurement": "IC50", "setting": "[3]; read-out: IC50 of paclitaxel combined with SP600125", "value": 0.21, "unit": "nM"}, {"measurement": "IC50", "setting": "[3]; MOVCAR7, 7 days, MTT, read-out: IC50 of paclitaxel alone", "value": 0.81, "unit": "nM"}]}
{"molecule": "COc1ccc(C[C@H]2NC[C@H](O)[C@H]2OC(C)=O)cc1", "note": "[anisomycin, reference compound]", "values": [{"measurement": "phosphorylation of JNK (positive control)", "setting": "[4]; 500 nM anisomycin, 30 min", "value": "strong activation"}]}
{"molecule": "MIS: Recombinant human MIS prepared from Chinese hamster ovary cells stably transfected with the human MIS gene (protein) LRAEEPAVGTSGLIFREDLDWPPGSPQEPLCLVALGGDSNGSSSPLRVVGALSAYEQAFLGAVQRARWGPRDLATFGVCNTGDRQAALPSLRRLGAWLRDPGGQRLVVLHLEEVTWEPTPSLRFQEPPPGGAGPPELALLVLYPGPGPEVTVTRAGLPGAQSLCPSRDTRYLVLAVDRPAGAWRGSGLALTLQPRGEDSRLSTARLQALLFGDDHRCFTRMTPALLLLPRSEPAPLPAHGQLDTVPFPPPRPSAELEESPPSADPFLETLTRLVRALRVPPARASAPRLALDPDALAGFPQGLVNLSDPAALERLLDGEEPLLLLLRPTAATTGDPAPLHDPTSAPWATALARRVAAELQAAAAELRSLPGLPPATAPLLARLLALCPGGPGGLGDPLRALLLLKALQGLRVEWRGRDPRGPGRAQRSAGATAADGPCALRELSVDLRAERSVLIPETYQANNCQGVCGWPQSDRNPRYGNHVVLLLKMQVRGAALARPPCCVPTAYAGKLLISLSEERISAHHVPNMVATECGCR", "values": [{"measurement": "BRE-luciferase expression, fold induction", "setting": "[1]; MIS 0.5 ug/ml alone, MISRII-transfected COS7, 24 h", "value": "greater than ten-fold"}, {"measurement": "activation of BRE-luciferase with kinase-deficient receptor", "setting": "[5]", "value": "neither MIS nor SP600125 activates BRE-luciferase"}, {"measurement": "increase of BRE activity compared to untreated cells", "setting": "[6]", "value": 2, "unit": "fold"}, {"measurement": "phosphorylation of JNK", "setting": "[4]; 5 μg/ml MIS, 30 min", "value": "no phosphorylation beyond background"}, {"measurement": "effect of MIS on phosphorylation of JNK by anisomycin", "setting": "[4]; MIS with anisomycin", "value": "no effect"}]}
